Source: patent US20140274969A1 (priority 2013, published 2014)

Assays:
[1] = Serum and CSF minocycline steady-state levels in SCI trial subjects
Method: Drug or placebo infusions were continued for a total of 14 doses i.e., for 7 days after injury (FIG. 1). All infusions were administered through a subclavian central venous catheter for a 30-min period.
Each sample was centrifuged at 2000 rpm for 5 min to separate cellular matter. The supernatant was flash frozen and stored at −80° C. in aliquots.

[2] = tested on: acute traumatic SCI; experiment: ASIA motor recovery after acute traumatic SCI (randomized placebo-controlled trial); type: in vivo, human
Method: The research protocol disclosed herein was approved by the University of Calgary Conjoint Health Research Ethics Board. Between June 2004 and August 2008, all subjects presenting with motor deficit secondary to acute traumatic SCI to the Spine Service at the Foothills Medical Centre in Calgary, Calgary, Alberta, Canada, were immediately identified to the principal investigators and were assessed and screened for this trial (Clinical Trials Gov. Identifier No. NCT00559494). Those within 12 h of injury who met other inclusion criteria (Table 1) were offered enrolment. […] For this purpose, sets of 10 random numbers balanced for odd and even integers were computer generated. Sequentially numbered and sealed packaged kits containing minocycline or placebo were constructed from the randomization codes for each stratified group by an independent individual not otherwise involved in the trial. Patients were administered the next available treatment kit for their appropriate treatment group. With the exception of the bedside nurse responsible for study drug administration, all subjects and research personnel were blinded to treatment until the end of the study (FIG. 1). […] Clin. Exp. Pharmacol. Physiol. 1:299-308). […] Neurological function was assessed at intervals using the American Spinal Cord Injury Association (ASIA) standardized neurological examination and included the motor composites and sensory composites. These examinations were performed by a physical medicine and rehabilitation specialist at Day 1 (time of enrolment), Day 4, Day 5, Day 7, Week 3, Week 6, Week 12, Month 6, and Month 12 (Table 3). Day 1 scores were subtracted from each subsequent score to calculate improvement from baseline for graphing purposes. […] ASIA sensory scores were similarly evaluated. […] Functional recovery data were compared over all data points. […] All statistical tests were two-tailed (a=0.05).

[3] = tested on: acute traumatic SCI; experiment: ASIA sensory recovery (pinprick, light touch) after acute traumatic SCI; type: in vivo, human
Method: Clin. Exp. Pharmacol. Physiol. 1:299-308). […] Neurological function was assessed at intervals using the American Spinal Cord Injury Association (ASIA) standardized neurological examination and included the motor composites and sensory composites. These examinations were performed by a physical medicine and rehabilitation specialist at Day 1 (time of enrolment), Day 4, Day 5, Day 7, Week 3, Week 6, Week 12, Month 6, and Month 12 (Table 3). Day 1 scores were subtracted from each subsequent score to calculate improvement from baseline for graphing purposes. […] ASIA sensory scores were similarly evaluated. […] Functional recovery data were compared over all data points. […] All statistical tests were two-tailed (a=0.05).

[4] = tested on: mixed neuronal and glial spinal cord cultures; details: 20 nM, 30 minutes before 24-hour excitotoxin exposure; cited from earlier work
[5] = tested on: SCI; details: rats; i.p. every 12 h for 3 days, 90 mg/kg then 30 mg/kg; cited from earlier work
[6] = tested on: hypoxic-ischemic brain injury; details: mice; s.c. 135 mg/kg then two 68 mg/kg doses at 24-h intervals; cited from earlier work
[7] = tested on: contusive SCI; details: rats; 90 mg/kg i.p. or via jugular cannula, then two 45 mg/kg i.p. at 12-h intervals; cited from earlier work
[8] = tested on: cervical SCI; details: rat; 90 mg/kg i.p. daily for 3 days; 42-day monitoring; cited from earlier work
[9] = tested on: amyotrophic lateral sclerosis; details: human; cited from earlier work
[10] = 200 mg twice-daily intravenously
[11] = 800 mg loading dose tapered by 100 mg every 12 h to 400 mg, IV, 7 days

## CN(C)c1ccc(O)c2c1C[C@H]1C[C@H]3[C@H](N(C)C)C(O)=C(C(N)=O)C(=O)[C@@]3(O)C(O)=C1C2=O [minocycline, (2E,4S,4aR,5aS,12aR)-2-(amino-hydroxy-methylidene)-4,7-bis(dimethylamino)-10,11,12a-trihydroxy-4-a,5,5a,6-tetrahydro-4H-tetracene-1,3,12-trione]
[1]; [10]
  CSF steady-state concentration: 1 µg/mL
  time to serum steady state: ≤ 48 h
[1]; 200 mg twice-daily intravenously, first five patients
  serum steady-state concentration: 4.2 µg/mL
[1]; 800 mg loading dose tapered by 100 mg every 12 h to 400 mg, IV
  time to serum and CSF steady state: ≤ 24 h
[1]; [11]
  CSF steady state: 2.3 µg/mL
  serum steady-state concentration: 12.7 µg/mL
[2]; all subjects with data beyond 3 months (44), 3-12 month plateau, P=0.20
  ASIA motor recovery greater than placebo: 6 motor points
[2]; cervical SCI
  distribution of motor recovery difference vs placebo: lower extremity and new segment scores: majority of the difference
  distribution of motor recovery difference vs placebo: upper extremities, zone of partial preservation: Little difference
[2]; cervical SCI (n=25), 95% CI 0-28, P=0.05
  difference in ASIA motor score over placebo: 14 point
[2]; cervical SCI subgroups (FIG. 5)
  motor recovery, low-dose vs high-dose groups: greater difference with higher doses
[2]; cervical motor-complete (n=16), P=0.29
  difference in ASIA motor score over placebo: 10 points
[2]; cervical motor-incomplete (n=9), P=0.12
  difference in ASIA motor score over placebo: 22 points
[2]; cervical motor-incomplete, excluding one placebo subject with poor recovery (n=8), P=0.135
  difference in ASIA motor score over placebo: 13 points
[2]; thoracic SCI (n=17)
  ASIA motor recovery benefit vs placebo: did not show any benefit
[3]; all subjects, not statistically significant, P=0.15
  ASIA pinprick sensory recovery greater than placebo: nine
[3]; all subjects, not statistically significant, P=0.27
  ASIA light-touch sensory recovery greater than placebo: seven
[3]; cervical motor-incomplete, P=0.20
  ASIA light-touch score higher than placebo: 20 light-touch points
[3]; cervical motor-incomplete, P=0.49
  ASIA pinprick score higher than placebo: 14 pinprick points
[3]; thoracic SCI
  difference in sensory scores vs placebo: No difference
[4]
  IL-1β and NO metabolite production: reduced
  microglia proliferation: Inhibition
  neuronal cell survival: more than doubled
[5]
  hindlimb motor function: significantly increased
[6]
  effects of hypoxic-ischemic brain injury: significantly exacerbated
[7]
  behavioural or histological improvements or recovery from SCI: neither route for minocycline administration resulted in any behavioural or histological improvements
[8]
  functional or histological improvements: did not result in any functional or histological improvements
[9]
  clinical outcome in amyotrophic lateral sclerosis: clinical deterioration
